Species: Homo sapiens
Assay: Ratio of IC50 for Mer (unknown origin) to IC50 for Axl (unknown origin)

Compound | Ratio IC50
CC(C)n1cc(C(=O)Nc2ccc(Oc3ncnc4c3CCN(C(=O)CCN3CCCC3)C4)c(F)c2)c(=O)n(-c2ccc(F)cc2)c1=O | 31
CC(C)n1cc(C(=O)Nc2ccc(Oc3ncnc4c3CN(C(=O)CCN3CCCC3)C4)c(F)c2)c(=O)n(-c2ccc(F)cc2)c1=O | 11
CC(C)n1cc(C(=O)Nc2ccc(Oc3ncnc4c3CCN(CC3CCN(C)CC3)C4)c(F)c2)c(=O)n(-c2ccc(F)cc2)c1=O | 20
CC(C)n1cc(C(=O)Nc2ccc(Oc3ncnc4c3CCN(C(=O)C3CCC3)C4)c(F)c2)c(=O)n(-c2ccc(F)cc2)c1=O | > 189
CC(C)n1cc(C(=O)Nc2ccc(Oc3ncnc4c3CCN(C)C4)c(F)c2)c(=O)n(-c2ccc(F)cc2)c1=O | 80
CC(C)n1cc(C(=O)Nc2ccc(Oc3ncnc4c3CN(C)C4)c(F)c2)c(=O)n(-c2ccc(F)cc2)c1=O | > 45

Each compound was assayed on BaF3 (assay: Ratio of IC50 for Mer in mouse BaF3 cells to IC50 for Axl in mouse BaF3 cells).
Assay type: cell-based

Compound | Ratio IC50
CC(C)n1cc(C(=O)Nc2ccc(Oc3ncnc4c3CCN(C(=O)CCN3CCCC3)C4)c(F)c2)c(=O)n(-c2ccc(F)cc2)c1=O | 3.9
CC(C)n1cc(C(=O)Nc2ccc(Oc3ncnc4c3CN(C(=O)CCN3CCCC3)C4)c(F)c2)c(=O)n(-c2ccc(F)cc2)c1=O | 2.3
CC(C)n1cc(C(=O)Nc2ccc(Oc3ncnc4c3CCN(CC3CCN(C)CC3)C4)c(F)c2)c(=O)n(-c2ccc(F)cc2)c1=O | 5.2
CC(C)n1cc(C(=O)Nc2ccc(Oc3ncnc4c3CCN(C(=O)C3CCC3)C4)c(F)c2)c(=O)n(-c2ccc(F)cc2)c1=O | 4.4

What follows are compounds tested against T1, Tyrosine-protein kinase receptor UFO (Homo sapiens, UniProt P30530) (assay: Inhibition of Axl (unknown origin) by cell free assay).
T1 sequence (P30530 whole entry): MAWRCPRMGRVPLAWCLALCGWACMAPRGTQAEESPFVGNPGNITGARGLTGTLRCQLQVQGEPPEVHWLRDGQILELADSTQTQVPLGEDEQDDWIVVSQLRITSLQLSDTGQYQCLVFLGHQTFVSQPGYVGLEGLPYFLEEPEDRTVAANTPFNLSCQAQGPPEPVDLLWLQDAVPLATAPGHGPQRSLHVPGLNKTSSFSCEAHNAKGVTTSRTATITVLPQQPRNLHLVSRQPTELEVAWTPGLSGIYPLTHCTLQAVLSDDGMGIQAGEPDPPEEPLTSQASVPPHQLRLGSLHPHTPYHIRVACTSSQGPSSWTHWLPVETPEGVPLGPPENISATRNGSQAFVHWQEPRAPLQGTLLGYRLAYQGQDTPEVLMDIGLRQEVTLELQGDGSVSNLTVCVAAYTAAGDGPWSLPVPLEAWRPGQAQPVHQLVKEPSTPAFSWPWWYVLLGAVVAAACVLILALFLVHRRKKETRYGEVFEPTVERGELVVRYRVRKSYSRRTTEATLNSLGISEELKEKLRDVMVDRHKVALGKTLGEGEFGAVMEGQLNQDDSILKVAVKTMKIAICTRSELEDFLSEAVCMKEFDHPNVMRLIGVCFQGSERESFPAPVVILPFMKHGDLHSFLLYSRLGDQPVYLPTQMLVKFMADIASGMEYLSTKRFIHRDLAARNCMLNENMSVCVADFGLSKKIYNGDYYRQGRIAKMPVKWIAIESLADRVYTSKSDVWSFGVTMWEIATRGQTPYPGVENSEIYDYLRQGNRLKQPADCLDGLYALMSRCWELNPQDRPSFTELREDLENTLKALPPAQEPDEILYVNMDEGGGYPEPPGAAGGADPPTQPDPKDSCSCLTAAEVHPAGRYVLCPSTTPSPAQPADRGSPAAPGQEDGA

Compound | IC50 [nM]
CC(C)n1cc(C(=O)Nc2ccc(Oc3ncnc4c3CCN(C(=O)CCN3CCCC3)C4)c(F)c2)c(=O)n(-c2ccc(F)cc2)c1=O | 7.8
CC(C)n1cc(C(=O)Nc2ccc(Oc3ncnc4c3CN(C(=O)CCN3CCCC3)C4)c(F)c2)c(=O)n(-c2ccc(F)cc2)c1=O | 15
CC(C)n1cc(C(=O)Nc2ccc(Oc3ncnc4c3CCN(CC3CCN(C)CC3)C4)c(F)c2)c(=O)n(-c2ccc(F)cc2)c1=O | 3.7
CC(C)n1cc(C(=O)Nc2ccc(Oc3ncnc4c3CCN(C(=O)C3CCC3)C4)c(F)c2)c(=O)n(-c2ccc(F)cc2)c1=O | 5.3
CC(C)n1cc(C(=O)Nc2ccc(Oc3ncnc4c3CCN(C)C4)c(F)c2)c(=O)n(-c2ccc(F)cc2)c1=O | 6.6
CC(C)n1cc(C(=O)Nc2ccc(Oc3ncnc4c3CN(C)C4)c(F)c2)c(=O)n(-c2ccc(F)cc2)c1=O | 22

The compounds below were run against T2, Tyrosine-protein kinase receptor UFO (Mus musculus, UniProt Q00993) (assay: Inhibition of Axl in mouse BaF3 cells).
T2 sequence (Q00993 whole entry): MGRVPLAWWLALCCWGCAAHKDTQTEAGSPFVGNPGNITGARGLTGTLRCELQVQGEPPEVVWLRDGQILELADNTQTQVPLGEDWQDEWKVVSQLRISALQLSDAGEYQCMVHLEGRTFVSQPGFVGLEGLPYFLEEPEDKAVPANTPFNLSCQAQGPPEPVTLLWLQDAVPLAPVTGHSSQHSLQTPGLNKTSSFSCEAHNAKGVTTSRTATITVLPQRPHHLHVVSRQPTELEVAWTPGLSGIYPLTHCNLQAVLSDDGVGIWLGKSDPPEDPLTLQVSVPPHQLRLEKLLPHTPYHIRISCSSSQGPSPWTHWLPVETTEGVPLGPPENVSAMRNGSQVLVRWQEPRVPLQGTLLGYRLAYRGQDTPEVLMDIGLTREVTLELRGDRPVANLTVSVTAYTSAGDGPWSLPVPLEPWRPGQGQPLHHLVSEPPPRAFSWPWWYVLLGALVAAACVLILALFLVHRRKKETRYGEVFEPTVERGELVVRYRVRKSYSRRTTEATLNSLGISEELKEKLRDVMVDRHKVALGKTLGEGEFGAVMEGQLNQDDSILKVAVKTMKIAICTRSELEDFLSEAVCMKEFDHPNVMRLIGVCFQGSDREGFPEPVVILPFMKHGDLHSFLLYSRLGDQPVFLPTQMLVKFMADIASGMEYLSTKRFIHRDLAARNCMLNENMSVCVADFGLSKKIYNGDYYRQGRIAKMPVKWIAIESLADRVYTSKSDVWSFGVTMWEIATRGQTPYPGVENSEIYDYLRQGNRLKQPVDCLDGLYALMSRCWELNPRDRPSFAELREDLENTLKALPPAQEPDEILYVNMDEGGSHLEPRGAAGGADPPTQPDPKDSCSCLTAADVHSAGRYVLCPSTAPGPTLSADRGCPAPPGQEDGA
Assay type: cell-based

Compound | IC50 [nM]
CC(C)n1cc(C(=O)Nc2ccc(Oc3ncnc4c3CCN(C(=O)CCN3CCCC3)C4)c(F)c2)c(=O)n(-c2ccc(F)cc2)c1=O | 74
CC(C)n1cc(C(=O)Nc2ccc(Oc3ncnc4c3CN(C(=O)CCN3CCCC3)C4)c(F)c2)c(=O)n(-c2ccc(F)cc2)c1=O | 120
CC(C)n1cc(C(=O)Nc2ccc(Oc3ncnc4c3CCN(CC3CCN(C)CC3)C4)c(F)c2)c(=O)n(-c2ccc(F)cc2)c1=O | 15
CC(C)n1cc(C(=O)Nc2ccc(Oc3ncnc4c3CCN(C(=O)C3CCC3)C4)c(F)c2)c(=O)n(-c2ccc(F)cc2)c1=O | 100
CC(C)n1cc(C(=O)Nc2ccc(Oc3ncnc4c3CCN(C)C4)c(F)c2)c(=O)n(-c2ccc(F)cc2)c1=O | 110
CC(C)n1cc(C(=O)Nc2ccc(Oc3ncnc4c3CN(C)C4)c(F)c2)c(=O)n(-c2ccc(F)cc2)c1=O | 220

What follows are compounds tested against T3, Tyrosine-protein kinase Mer (Mus musculus, UniProt Q60805) (assay: Inhibition of Mer in mouse BaF3 cells).
T3 sequence (Q60805 whole entry): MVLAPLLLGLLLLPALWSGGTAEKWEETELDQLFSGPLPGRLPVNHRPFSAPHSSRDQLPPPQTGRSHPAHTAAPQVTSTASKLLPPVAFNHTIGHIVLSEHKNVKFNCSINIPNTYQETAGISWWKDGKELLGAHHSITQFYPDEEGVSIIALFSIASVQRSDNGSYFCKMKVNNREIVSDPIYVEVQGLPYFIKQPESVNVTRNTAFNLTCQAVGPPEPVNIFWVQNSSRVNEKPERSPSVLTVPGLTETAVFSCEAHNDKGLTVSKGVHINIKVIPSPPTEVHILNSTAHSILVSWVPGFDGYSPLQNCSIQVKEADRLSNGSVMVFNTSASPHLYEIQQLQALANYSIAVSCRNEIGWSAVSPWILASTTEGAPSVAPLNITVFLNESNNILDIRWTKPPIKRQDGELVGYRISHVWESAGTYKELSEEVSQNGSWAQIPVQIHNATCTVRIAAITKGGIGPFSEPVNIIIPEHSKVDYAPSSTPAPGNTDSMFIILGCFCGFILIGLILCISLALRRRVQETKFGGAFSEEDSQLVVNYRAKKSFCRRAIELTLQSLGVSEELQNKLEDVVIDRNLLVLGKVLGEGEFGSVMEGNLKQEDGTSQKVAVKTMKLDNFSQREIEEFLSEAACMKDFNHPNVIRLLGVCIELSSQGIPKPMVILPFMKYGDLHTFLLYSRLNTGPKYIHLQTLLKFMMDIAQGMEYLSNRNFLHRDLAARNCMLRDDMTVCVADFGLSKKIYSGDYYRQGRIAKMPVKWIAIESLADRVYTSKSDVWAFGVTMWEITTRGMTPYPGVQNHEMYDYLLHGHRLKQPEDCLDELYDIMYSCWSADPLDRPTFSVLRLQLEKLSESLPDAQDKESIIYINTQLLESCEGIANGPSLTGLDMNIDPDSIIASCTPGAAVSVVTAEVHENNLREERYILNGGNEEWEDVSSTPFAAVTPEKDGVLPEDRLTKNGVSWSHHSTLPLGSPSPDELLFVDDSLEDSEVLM
Assay type: cell-based

Compound | IC50 [nM]
CC(C)n1cc(C(=O)Nc2ccc(Oc3ncnc4c3CCN(C(=O)CCN3CCCC3)C4)c(F)c2)c(=O)n(-c2ccc(F)cc2)c1=O | 290
CC(C)n1cc(C(=O)Nc2ccc(Oc3ncnc4c3CN(C(=O)CCN3CCCC3)C4)c(F)c2)c(=O)n(-c2ccc(F)cc2)c1=O | 280
CC(C)n1cc(C(=O)Nc2ccc(Oc3ncnc4c3CCN(CC3CCN(C)CC3)C4)c(F)c2)c(=O)n(-c2ccc(F)cc2)c1=O | 78
CC(C)n1cc(C(=O)Nc2ccc(Oc3ncnc4c3CCN(C(=O)C3CCC3)C4)c(F)c2)c(=O)n(-c2ccc(F)cc2)c1=O | 440
CC(C)n1cc(C(=O)Nc2ccc(Oc3ncnc4c3CCN(C)C4)c(F)c2)c(=O)n(-c2ccc(F)cc2)c1=O | 570
CC(C)n1cc(C(=O)Nc2ccc(Oc3ncnc4c3CN(C)C4)c(F)c2)c(=O)n(-c2ccc(F)cc2)c1=O | 2600

The compounds below were run against T4, Tyrosine-protein kinase Mer (Homo sapiens, UniProt Q12866) (assay: Inhibition of Mer (unknown origin) by cell free assay).
T4 sequence (Q12866 whole entry): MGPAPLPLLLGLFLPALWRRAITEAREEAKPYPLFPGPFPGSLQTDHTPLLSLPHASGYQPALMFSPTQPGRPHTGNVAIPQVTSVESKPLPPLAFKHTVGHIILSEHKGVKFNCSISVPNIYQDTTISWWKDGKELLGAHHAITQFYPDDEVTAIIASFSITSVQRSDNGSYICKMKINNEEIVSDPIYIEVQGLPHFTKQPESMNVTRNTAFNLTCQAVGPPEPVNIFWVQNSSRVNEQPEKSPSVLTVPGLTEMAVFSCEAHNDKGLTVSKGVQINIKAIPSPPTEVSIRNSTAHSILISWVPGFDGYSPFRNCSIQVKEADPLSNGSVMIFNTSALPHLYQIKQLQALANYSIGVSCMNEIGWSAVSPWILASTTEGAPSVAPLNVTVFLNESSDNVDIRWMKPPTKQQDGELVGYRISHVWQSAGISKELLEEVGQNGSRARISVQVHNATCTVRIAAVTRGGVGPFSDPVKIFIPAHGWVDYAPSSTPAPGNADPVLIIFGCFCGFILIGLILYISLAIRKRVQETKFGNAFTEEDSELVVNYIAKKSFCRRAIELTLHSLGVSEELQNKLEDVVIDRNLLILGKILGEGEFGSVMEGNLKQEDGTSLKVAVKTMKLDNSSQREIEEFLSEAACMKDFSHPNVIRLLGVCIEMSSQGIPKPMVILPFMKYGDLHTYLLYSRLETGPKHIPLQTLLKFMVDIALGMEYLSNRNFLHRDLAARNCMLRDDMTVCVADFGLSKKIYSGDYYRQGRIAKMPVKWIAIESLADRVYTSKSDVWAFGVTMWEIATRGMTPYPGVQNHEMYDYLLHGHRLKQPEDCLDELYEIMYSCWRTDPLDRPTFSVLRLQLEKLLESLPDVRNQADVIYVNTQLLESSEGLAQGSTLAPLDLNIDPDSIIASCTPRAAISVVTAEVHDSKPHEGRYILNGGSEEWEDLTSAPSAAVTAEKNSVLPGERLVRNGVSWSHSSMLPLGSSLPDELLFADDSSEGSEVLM

Compound | IC50 [nM]
CC(C)n1cc(C(=O)Nc2ccc(Oc3ncnc4c3CCN(C(=O)CCN3CCCC3)C4)c(F)c2)c(=O)n(-c2ccc(F)cc2)c1=O | 240
CC(C)n1cc(C(=O)Nc2ccc(Oc3ncnc4c3CN(C(=O)CCN3CCCC3)C4)c(F)c2)c(=O)n(-c2ccc(F)cc2)c1=O | 160
CC(C)n1cc(C(=O)Nc2ccc(Oc3ncnc4c3CCN(CC3CCN(C)CC3)C4)c(F)c2)c(=O)n(-c2ccc(F)cc2)c1=O | 74
CC(C)n1cc(C(=O)Nc2ccc(Oc3ncnc4c3CCN(C(=O)C3CCC3)C4)c(F)c2)c(=O)n(-c2ccc(F)cc2)c1=O | > 1000
CC(C)n1cc(C(=O)Nc2ccc(Oc3ncnc4c3CCN(C)C4)c(F)c2)c(=O)n(-c2ccc(F)cc2)c1=O | 530
CC(C)n1cc(C(=O)Nc2ccc(Oc3ncnc4c3CN(C)C4)c(F)c2)c(=O)n(-c2ccc(F)cc2)c1=O | > 1000

— ChEMBL document CHEMBL4823291, “Discovery of 5,6,7,8-tetrahydropyrido[3,4-d]pyrimidine derivatives as novel selective Axl inhibitors” (Bioorg Med Chem Lett, 2021)
